Measurements taken from patent EP0688331B1, “NEW SULFATED LYSO-GANGLIOSIDE DERIVATIVES” (FIDIA S.p.A., priority 1993, dated 1994).
Like-named read-outs stand apart in the source and are kept apart here.

Key:
[1] = tested on: Mouse neuroblastoma cells C1300, Neuro-2A clone; assay: Neuritogenic activity (% of neurite-bearing cells under the optical microscope); format: cell-based; settings: for EC50: neuroblastoma cells N2A, % of neurite-bearing cells, read-out: ED50 (µM) neuritogenic effect
Description: Mouse neuroblastoma cells C1300, Neuro-2A clone (obtained from American Cell Type Culture Collection - Bethesda, Md) have been seeded at a density of 10,000 cells/well (24-Falcon) in tissue culture medium containing Dulbecco's modified Eagle medium (DMEM, Gibco), 10% fetal calf serum heat inactivated (FCS, lot 7201 Seromed), penicillin (100 units per ml, Irvine) and L-glutamine (2 mM, Sigma). Cells have been incubated at 37° C for 24 hr, then the medium was withdrawn and substituted with 350 µl of fresh culture medium with and without the compounds to be tested.
The derivatives have been solubilized in chloroform/methanol (2/1) and then dried under a flow of nitrogen.
For the different compounds, consecutive dilutions in tissue culture medium (concentrations from 50 µM to 5 µM) were performed.
Culture dishes incubated with the tested compounds were analyzed under a phase contrast microscope (250x) : 9 optical fields were chosen with prefixed coordinates and photographed. Then, the total number of cells were counted, as well as the number of neurite-bearing cells (length at least double of the cell diameter) in blind on every picture. The percentage of neurite-bearing cells was determined following the counting of at least 100 cells, and the data were expressed by the respective ED50 (µM) (Facci L. et al.: Promotion of neuritogenesis in mouse neuroblastoma cells by exogenous ganglioside GM1. J. Neurochem. 229-305, 1984).

[2] = tested on: cerebellar granule cells; settings: read-out: ED50 (antineurotoxic activity); 2 hrs pretreatment, then 100 µM glutamate 60 minutes; MTT after 24 hr
Description: Primary cultures of cerebellar granule cells have been prepared from 8-day-old Sprague-Dawley rats.
Neurons have been grown in 35 mm dishes for 11-13 days and kept in a humidified environment (95% air and 5% CO2) at 37° C. […] Glial proliferation was prevented by cytosine arabinofuranoside.
Concentrations from 100 µM to 5 µM have been tested.
The cell culture medium was aspirated from the dishes (and properly stored). The dishes were washed (3x2 ml) with Locke's solution, then the solutions (1.5 ml) containing the compound to be tested were added, and incubated for 2 hrs in incubator at 37° C (5% CO2).
The treated cells were washed (3x2 ml) with Locke's solution + 10% fetal calf serum heat inactivated (without glutamic acid), then washed (3x2 ml) in Locke's solution in the absence of Mg^2+. […]
At the end of the incubation the cell viability measured by using the MTT colorimetric test was evaluated (Mosmann T., Rapid colorimetric assay for cellular growth and survival: application to proliferation and cytotoxicity assays. J. Immunol. Meth. 65, 55-63, 1983 and modified according to Skaper S.D. et al.: Death of cultured hippocampal pyramidal neurons induced by pathological activation of N-methyl-Daspartate receptors is reduced by monosialogangliosides. J. Pharm. and Exp. Ther. 259, 1, 452-457, 1991). The data are expressed as ED50 (µM).

[3] = biological target: T1, CD4 (Homo sapiens, UniProt P01730); assay: Expression of the CD4 molecule in Molt 3 cells (flow cytofluorimetry with anti-CD4 mAb); format: cell-based; settings: 60 minutes at 37° C
T1 construct: 100% of Molt 3 cells express CD4; host or cells: Molt 3 cells (human acute lymphoblastic leukemia T-cell line)
Source text: Molt 3 cells (American Type Culture Collection - Rockville, MD, USA) have been utilized, human tumoral cell lines derived from an acute lymphoblastic leukemia and formed by T lymphocytes expressing CD4 on their surface. Such a cell line was chosen due to the fact that it overlaps, as regards the expression of the CD4 molecule, human T lymphocytes obtained from peripheral blood. 100% of Molt 3 cells express CD4, whereas only part of human T lymphocytes from peripheral blood express CD4 in a proportion varying from subject to subject. The Molt 3 model has therefore the advantage of allowing a better experimental reliability.
Molt 3 cells (1x10^6) have been incubated with different concentrations of Liga 179 (from 1 µg/ml to 500 µg/ml) for 60 minutes at 37° C in buffered saline (PBS), with or without Fetal Calf Serum (FCS). When utilized, FCS was added at a concentration of 5 or 10 part/percentage (vol/vol). Following the incubation and the subsequent washing the percentage of cells expressing CD4 has been measured by flow cytofluorimetry using a monoclonal, fluoresceinated (mAb), specific for CD4 (DAKO T4, Dakopatts, Glostrup, Denmark) and a cytofluorimeter (EPICS V, Coulter Electronics, Hialeah, Florida, USA). In Table 4 are reported the data concerning the percentage of Molt 3 cells that express CD4, following the incubation with the compound under examination at the different concentrations utilized.

[4] = tested on: cerebellar granule cells; settings: read-out: ED50 (antineurotoxic activity); co-treatment with 100 µM glutamate, 30 minutes; MTT after 24 hours
Description: Thus, dilutions have been performed at different concentrations in Locke's solution (154 mM NaCl, 5.6 mM KCl, 3.6 mM NaHCO3, 2.3 mM CaCl2, 5.6 mM glucose, 4.6 mM Hepes, pH 7.4). Concentrations from 100 µM to 5 µM have been tested.
The cell culture medium was aspirated from the dishes (and properly stored). The dishes were washed (3x2 ml) with Locke's solution in the absence of Mg^2+. Then, 1.5 ml of Locke's solution (-Mg^2+) with or without 100 µM glutamate and with or without the compound to be tested were added. The incubation period lasted 30 minutes (37° C). Glutamate and the compound to be tested were then removed. The dishes were washed with Locke's solution in the presence of Mg^2+ (2x2 ml) and then incubated in the presence of the initial medium (properly stored) for 24 hours at 37° C in an incubator (5% CO2).
At the end of the incubation cell viability measured by means of the MTT colorimetric test was evaluated (Mosmann T.: Rapid colorimetric assay for cellular growth and survival: application to proliferation and cytotoxicity assays. J Immunol. Meth. 65, 55-63, 1983 and modified according to Skaper S.D. et al.: Death of cultured hippocampal pyramidal neurons induced by pathological activation of N-methyl-D-aspartate receptors is reduced by monosialogangliosides. J. Pharm. and Exp. Ther. 259,1, 452-457, 1991). Data were expressed as ED50 (µM).

Substance | % of neurite-bearing cells ([1]; dose of 25 µM) | EC50 [1] | EC50 [2] | % MOLT-3 cells expressing CD4 on the surface ([3]; 10 µg/ml, FCS 0 %, without compound 96.9) | % MOLT-3 cells expressing CD4 on the surface ([3]; 50 µg/ml, FCS 0 %, without compound 96.9) | % MOLT-3 cells expressing CD4 on the surface ([3]; 100 µg/ml, FCS 0 %, without compound 96.9) | % MOLT-3 cells expressing CD4 on the surface ([3]; 100 µg/ml, FCS 5 %, without compound 98.6) | % MOLT-3 cells expressing CD4 on the surface ([3]; 100 µg/ml, FCS 10 %, without compound 96.9) | % MOLT-3 cells expressing CD4 on the surface ([3]; 200 µg/ml, FCS 5 %, without compound 98.6) | % MOLT-3 cells expressing CD4 on the surface ([3]; 200 µg/ml, FCS 10 %, without compound 96.9) | % MOLT-3 cells expressing CD4 on the surface ([3]; 500 µg/ml, FCS 5 %, without compound 98.6) | % MOLT-3 cells expressing CD4 on the surface ([3]; 500 µg/ml, FCS 10 %, without compound 96.9) | EC50 [4]
N-4-CHLOROBENZENESULFONYL-LYSOGM1 [Liga 123] | about 48% | 12 µM | 6 µM | – | – | – | – | – | – | – | – | – | –
O-SULFATED N'SULFO-N'-LYSO-GM1 [Liga 179] | – | – | – | 0% | 0% | 0% | 15.5% | 86.5% | 0% | 14.6% | 0% | 0% | 15 µM
N-BENZENESULFONYL-LYSO GM1 [Liga 125] | – | 25 µM | – | – | – | – | – | – | – | – | – | – | –
